Source: ChEMBL document CHEMBL1909046, “DrugMatrix in vitro pharmacology data”

Tests used:
[1] = molecular target: T1, Cysteinyl leukotriene receptor 1 (Homo sapiens, UniProt Q9Y271); type: cell membranes, Membrane; details: cho-k1; also: in other assays of this panel Not Active means under 50% inhibition at 10 µM
T1 sequence (Q9Y271 whole entry): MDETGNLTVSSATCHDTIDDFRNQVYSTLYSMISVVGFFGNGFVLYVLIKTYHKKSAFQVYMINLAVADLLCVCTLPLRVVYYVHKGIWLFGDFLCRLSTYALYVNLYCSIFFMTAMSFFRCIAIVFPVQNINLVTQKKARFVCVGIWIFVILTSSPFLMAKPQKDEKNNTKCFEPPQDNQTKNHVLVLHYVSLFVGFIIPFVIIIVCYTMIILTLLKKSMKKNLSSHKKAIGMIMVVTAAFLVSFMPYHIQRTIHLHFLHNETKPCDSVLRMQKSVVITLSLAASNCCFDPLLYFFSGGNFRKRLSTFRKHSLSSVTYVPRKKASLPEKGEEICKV

[2] = molecular target: Voltage-gated inwardly rectifying potassium channel KCNH2 (Homo sapiens, UniProt Q12809); details: hek293; also: in other assays of this panel Not Active means under 50% inhibition at 10 µM
Chain of Voltage-gated inwardly rectifying potassium channel KCNH2 (Q12809 whole entry): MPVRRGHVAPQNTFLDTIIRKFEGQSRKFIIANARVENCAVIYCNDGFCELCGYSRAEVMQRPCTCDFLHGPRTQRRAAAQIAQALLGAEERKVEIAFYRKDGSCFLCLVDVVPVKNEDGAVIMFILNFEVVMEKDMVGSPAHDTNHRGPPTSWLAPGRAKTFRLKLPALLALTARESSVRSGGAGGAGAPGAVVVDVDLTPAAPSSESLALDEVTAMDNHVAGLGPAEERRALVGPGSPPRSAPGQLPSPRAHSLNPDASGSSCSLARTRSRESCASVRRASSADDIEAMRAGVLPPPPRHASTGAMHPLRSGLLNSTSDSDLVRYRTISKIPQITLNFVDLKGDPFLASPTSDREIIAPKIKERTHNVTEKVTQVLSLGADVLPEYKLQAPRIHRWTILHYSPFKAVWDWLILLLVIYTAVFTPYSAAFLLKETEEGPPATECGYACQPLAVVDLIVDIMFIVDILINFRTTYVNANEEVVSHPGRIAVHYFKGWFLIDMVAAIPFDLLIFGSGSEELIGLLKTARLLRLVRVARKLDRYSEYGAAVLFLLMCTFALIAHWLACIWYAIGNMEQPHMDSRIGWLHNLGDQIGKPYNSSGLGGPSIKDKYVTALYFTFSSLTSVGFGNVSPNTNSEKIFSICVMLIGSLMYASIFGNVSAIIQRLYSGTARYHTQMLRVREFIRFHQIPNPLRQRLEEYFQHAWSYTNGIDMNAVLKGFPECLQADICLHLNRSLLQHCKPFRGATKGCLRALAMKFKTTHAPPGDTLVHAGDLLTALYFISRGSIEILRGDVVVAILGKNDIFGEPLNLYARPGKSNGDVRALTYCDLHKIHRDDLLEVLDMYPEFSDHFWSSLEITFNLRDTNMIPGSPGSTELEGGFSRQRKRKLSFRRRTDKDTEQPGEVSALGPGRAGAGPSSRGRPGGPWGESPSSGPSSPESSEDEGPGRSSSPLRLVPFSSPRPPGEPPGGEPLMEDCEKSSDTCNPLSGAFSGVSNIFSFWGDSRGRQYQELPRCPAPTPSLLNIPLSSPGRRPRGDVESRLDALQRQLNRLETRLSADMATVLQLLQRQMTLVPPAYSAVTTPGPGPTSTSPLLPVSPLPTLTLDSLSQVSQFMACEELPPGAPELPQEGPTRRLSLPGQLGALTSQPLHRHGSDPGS

[3] = molecular target: T2, Progesterone receptor (Bos taurus, UniProt Q690N0); test: DRUGMATRIX: Progesterone radioligand binding (ligand: [3H] R-5020); type: tissue-based, Uterus; details: Not Active = under 50% inhibition at 10 µM
T2 sequence (Q690N0 whole entry): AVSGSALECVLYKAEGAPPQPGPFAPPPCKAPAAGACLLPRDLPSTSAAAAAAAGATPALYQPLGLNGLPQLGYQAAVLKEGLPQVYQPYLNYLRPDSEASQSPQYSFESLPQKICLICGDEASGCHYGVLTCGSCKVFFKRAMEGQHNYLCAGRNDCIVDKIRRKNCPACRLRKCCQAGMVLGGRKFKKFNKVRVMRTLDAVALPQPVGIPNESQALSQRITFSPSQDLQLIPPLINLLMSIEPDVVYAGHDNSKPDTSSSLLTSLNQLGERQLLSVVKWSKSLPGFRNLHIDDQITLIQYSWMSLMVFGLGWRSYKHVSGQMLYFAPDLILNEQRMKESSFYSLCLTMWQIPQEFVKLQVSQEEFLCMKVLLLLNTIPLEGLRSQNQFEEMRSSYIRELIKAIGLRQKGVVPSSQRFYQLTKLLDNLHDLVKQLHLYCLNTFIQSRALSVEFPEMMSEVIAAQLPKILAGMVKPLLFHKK

[4] = molecular target: Cannabinoid receptor 1 (Homo sapiens, UniProt P21554); type: cell membranes, Membrane; details: chem-1; also: in other assays of this panel Not Active means under 50% inhibition at 10 µM
Chain of Cannabinoid receptor 1 (P21554 whole entry): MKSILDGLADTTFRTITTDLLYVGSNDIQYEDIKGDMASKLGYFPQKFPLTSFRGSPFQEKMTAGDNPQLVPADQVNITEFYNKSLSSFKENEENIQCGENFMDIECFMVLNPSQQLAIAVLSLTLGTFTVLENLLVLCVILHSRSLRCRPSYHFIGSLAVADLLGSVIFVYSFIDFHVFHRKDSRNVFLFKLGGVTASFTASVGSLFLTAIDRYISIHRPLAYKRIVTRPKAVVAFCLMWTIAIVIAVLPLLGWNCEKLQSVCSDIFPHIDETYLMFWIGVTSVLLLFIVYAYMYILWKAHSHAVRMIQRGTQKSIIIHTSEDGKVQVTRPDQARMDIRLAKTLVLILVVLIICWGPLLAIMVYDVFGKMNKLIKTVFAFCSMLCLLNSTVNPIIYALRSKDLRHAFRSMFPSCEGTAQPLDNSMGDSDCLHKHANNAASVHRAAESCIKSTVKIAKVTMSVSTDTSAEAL

[5] = molecular target: Cytochrome P450 3A4 (Homo sapiens, UniProt P08684); details: bti-tn-5b1-4; also: in other assays of this panel Not Active means under 50% inhibition at 10 µM
Chain of Cytochrome P450 3A4 (P08684 whole entry): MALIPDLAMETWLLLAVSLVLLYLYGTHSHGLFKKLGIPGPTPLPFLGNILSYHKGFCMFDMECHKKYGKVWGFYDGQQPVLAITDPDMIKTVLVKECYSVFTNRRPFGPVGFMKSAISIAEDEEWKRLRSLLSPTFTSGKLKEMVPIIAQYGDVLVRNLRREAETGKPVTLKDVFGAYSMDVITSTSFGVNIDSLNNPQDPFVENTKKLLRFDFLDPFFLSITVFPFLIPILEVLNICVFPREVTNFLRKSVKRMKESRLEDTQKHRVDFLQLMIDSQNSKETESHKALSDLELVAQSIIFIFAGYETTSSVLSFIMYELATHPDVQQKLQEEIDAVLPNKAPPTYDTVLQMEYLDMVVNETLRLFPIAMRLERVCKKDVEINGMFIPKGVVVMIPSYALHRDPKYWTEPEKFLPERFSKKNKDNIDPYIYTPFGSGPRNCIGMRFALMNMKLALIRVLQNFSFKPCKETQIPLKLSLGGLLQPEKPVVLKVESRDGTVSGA

[6] = DRUGMATRIX: Phosphodiesterase PDE3 enzyme inhibition (substrate: [3H]cAMP + cAMP); type: tissue-based, Homo sapiens; details: platelet; Not Active = under 50% inhibition at 10 µM
[7] = DRUGMATRIX: Calcium Channel Type L, Phenylalkylamine radioligand binding (ligand: [3H] (-)-Desmethoxyverapamil (D-888)); type: cell membranes, Rattus norvegicus, Wistar, Brain, Membrane; details: Not Active = under 50% inhibition at 10 µM
[8] = molecular target: Vascular endothelial growth factor receptor 1 (Homo sapiens, UniProt P17948); test: biochemical; type: cell-based, HUVEC; details: huvec; also: in other assays of this panel Not Active means under 50% inhibition at 10 µM
Chain of Vascular endothelial growth factor receptor 1 (P17948 whole entry): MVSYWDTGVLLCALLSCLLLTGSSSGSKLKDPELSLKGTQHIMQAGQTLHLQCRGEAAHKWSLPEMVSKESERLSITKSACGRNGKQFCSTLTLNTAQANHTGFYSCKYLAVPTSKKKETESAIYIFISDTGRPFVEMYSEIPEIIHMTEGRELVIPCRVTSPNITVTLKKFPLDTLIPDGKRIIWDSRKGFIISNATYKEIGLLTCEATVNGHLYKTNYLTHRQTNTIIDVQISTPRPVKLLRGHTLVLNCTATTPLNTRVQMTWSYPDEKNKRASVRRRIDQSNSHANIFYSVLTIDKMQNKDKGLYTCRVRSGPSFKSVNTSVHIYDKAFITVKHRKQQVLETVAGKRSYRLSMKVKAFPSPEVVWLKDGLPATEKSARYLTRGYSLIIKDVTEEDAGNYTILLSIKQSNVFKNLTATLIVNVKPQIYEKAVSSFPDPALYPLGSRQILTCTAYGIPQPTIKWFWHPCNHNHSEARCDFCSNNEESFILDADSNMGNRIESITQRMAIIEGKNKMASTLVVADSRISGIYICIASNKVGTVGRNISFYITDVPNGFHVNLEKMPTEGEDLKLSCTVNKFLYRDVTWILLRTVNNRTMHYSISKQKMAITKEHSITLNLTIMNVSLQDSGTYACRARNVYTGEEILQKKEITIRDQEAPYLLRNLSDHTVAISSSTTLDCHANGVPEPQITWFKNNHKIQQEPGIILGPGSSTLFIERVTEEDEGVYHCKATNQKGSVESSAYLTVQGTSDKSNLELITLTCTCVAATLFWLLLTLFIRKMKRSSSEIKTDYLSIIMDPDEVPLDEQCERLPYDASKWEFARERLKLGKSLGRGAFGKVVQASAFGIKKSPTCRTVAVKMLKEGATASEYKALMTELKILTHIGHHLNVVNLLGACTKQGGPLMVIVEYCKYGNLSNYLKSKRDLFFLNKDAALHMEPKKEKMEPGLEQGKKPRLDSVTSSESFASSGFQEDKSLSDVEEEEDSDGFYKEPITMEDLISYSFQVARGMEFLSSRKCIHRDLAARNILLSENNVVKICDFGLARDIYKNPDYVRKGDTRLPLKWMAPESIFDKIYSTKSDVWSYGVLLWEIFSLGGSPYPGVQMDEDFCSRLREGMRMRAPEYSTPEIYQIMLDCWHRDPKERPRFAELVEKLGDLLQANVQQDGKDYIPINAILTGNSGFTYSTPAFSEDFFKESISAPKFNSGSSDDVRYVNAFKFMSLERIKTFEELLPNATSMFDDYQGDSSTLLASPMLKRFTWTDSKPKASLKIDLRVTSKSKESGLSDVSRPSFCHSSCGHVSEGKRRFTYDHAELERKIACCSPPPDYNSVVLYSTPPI

CNS(=O)(=O)Cc1ccc2[nH]cc(CCN(C)C)c2c1
Not Active: IC50 [1] | IC50 [2] | Ki [2] | IC50 [3] | IC50 [4] | IC50 [5] | Ki [5] | IC50 [6] | Ki [6] | IC50 [7] | Ki [7] | IC50 [8]

CCCc1nn(C)c2c(=O)[nH]c(-c3cc(S(=O)(=O)N4CCN(C)CC4)ccc3OCC)nc12
Not Active: IC50 [1] | IC50 [3] | IC50 [4] | IC50 [5] | Ki [5] | IC50 [6] | Ki [6] | IC50 [7] | Ki [7] | IC50 [8]

COc1ccc(/C=C/C(=O)Nc2ccccc2C(=O)O)cc1OC
Not Active: IC50 [1] | IC50 [2] | Ki [2] | IC50 [3] | IC50 [4] | IC50 [5] | Ki [5] | IC50 [6] | Ki [6] | IC50 [7] | Ki [7] | IC50 [8]

CCOC(N)=O
Not Active: IC50 [1] | IC50 [2] | Ki [2] | IC50 [3] | IC50 [4] | IC50 [5] | Ki [5] | IC50 [6] | Ki [6] | IC50 [7] | Ki [7] | IC50 [8]

CC1=C(CC(=O)O)c2cc(F)ccc2/C1=C\c1ccc(S(C)(=O)=O)cc1 [EXISULIND]
Not Active: IC50 [1] | IC50 [2] | Ki [2] | IC50 [3] | IC50 [4] | IC50 [5] | Ki [5] | IC50 [6] | Ki [6] | IC50 [7] | Ki [7] | IC50 [8]

Nc1nc2c(c(=O)[nH]1)N(C=O)C(CNc1ccc(C(=O)N[C@@H](CCC(=O)O)C(=O)O)cc1)CN2 (some centres undefined) [LEUCOVORIN]
Not Active: IC50 [1] | IC50 [2] | Ki [2] | IC50 [3] | IC50 [4] | IC50 [5] | Ki [5] | IC50 [6] | Ki [6] | IC50 [7] | Ki [7] | IC50 [8]

C[C@@H](O)[C@H]1C(=O)N2C(C(=O)O)=C(S[C@@H]3CN[C@H](C(=O)N(C)C)C3)[C@H](C)[C@H]12 [MEROPENEM]
Not Active: IC50 [1] | IC50 [2] | Ki [2] | IC50 [3] | IC50 [4] | IC50 [5] | Ki [5] | IC50 [6] | Ki [6] | IC50 [7] | Ki [7] | IC50 [8]

CCN(CC)CC#CCOC(=O)C(O)(c1ccccc1)C1CCCCC1 (centres undefined) [OXYBUTYNIN]
Not Active: IC50 [1] | IC50 [2] | Ki [2] | IC50 [3] | IC50 [4] | IC50 [5] | Ki [5] | IC50 [8]

O=P(O)(O)C(O)(Cc1cccnc1)P(=O)(O)O [RISEDRONIC ACID]
Not Active: IC50 [1] | IC50 [2] | Ki [2] | IC50 [3] | IC50 [4] | IC50 [5] | Ki [5] | IC50 [6] | Ki [6] | IC50 [7] | Ki [7] | IC50 [8]

C=C(C)[C@H]1Cc2c(ccc3c2O[C@@H]2COc4cc(OC)c(OC)cc4[C@@H]2C3=O)O1 [ROTENONE]
Not Active: IC50 [1] | IC50 [2] | Ki [2] | IC50 [3] | IC50 [4] | IC50 [5] | Ki [5] | IC50 [6] | Ki [6] | IC50 [7] | Ki [7] | IC50 [8]
